Assay results reported in patent publication US20130189775A1, “MODULATION OF THE […] RECEPTOR mTOR TO INHIBIT STEM CELL DIFFERENTIATION INTO NEURONS” (priority 2011, published 2013).
“Also recorded” adds a separate entry of the source. Each block holds one molecule with its values, some of them ahead of it.

What was measured:
[1] = tested on: ReN cells; assay: ReN cell neural progenitor differentiation, phase contrast microscopy; type: cell-based, human; details: for block of neural progenitor differentiation by PI3-K / Akt inhibitors: ReN cells differentiated in presence of inhibitor for 6-7 days (FIG. 3, FIG. 4)
Procedure: To evaluate the role of kinases in the differentiation of neural stem cells, we added kinase inhibitors from the BIOMOL kinase inhibitor library to the culture during the differentiation process. Kinase inhibitors were replaced on alternate days during media change. Cultures were grown for 6-7 days. We used phase contrast imaging and immunocytochemistry to understand the difference in the morphological differentiation.
General procedure for neuronal stem cell culture on laminin surface: • 96 well CellBind™ treated plates were washed with 70% ethanol and kept ON in the hood • Next day morning, plates were washed twice with 1×PBS • Laminin (50 μl, 20 μg/ml) was added to the wells and incubated 37° C. incubator for 5 hrs. • Wells were washed with 1×PBS after incubation. • Cells were seeded at 20,000 cells/well • For undifferentiated cells, the cultures were grown for 9 days. Media was changed everyday with growth factor supplementation • For differentiated cells, the growth factor deprived media was added after next day after seeding and cells were grown further for 6 days with media changes every other day. • Rapamycin and other inhibitors were added to the cells when the media was changed to growth factor independent media. Media was maintained throughout the study and changed on alternate days. ReNcell NSC Maintenance Medium contains DMEM/F12 w/o HEPES, w/L-Glutamine, human serum albumin, human transferrin, putrescine dihydrochloride, human recombinant insulin, L-thyroxine, Tri-iodo-thyronine, progesterone, sodium selenite, heparin, corticosterone. […] The growth factors used were EGF (Epidermal growth factor) and bFGF (Basic fibroblast growth factor).
Kinase inhibitors (1 μM) was added to the cells next day after seeding and replenished during media changes on alternate days. Phase contrast microscopy was done after 6 days as described below. […]
After the experiment, the cells were fixed with 4% paraformaldehyde and washed thrice with 1×PBS. Cells were assessed using a Ziess Axiovert 200M inverted Brightfield/fluorescence microscope.

[2] = tested on: quiescent human epidermoid carcinoma A431; assay: EGF-induced DMR response of quiescent A431 cells (optical biosensor); type: cell-based
Description: The DMR signal mediated through a particular target is an integrated and quantifiable signal that is a sum of contributions from mass redistribution occurring at different distances away from the sensor surface. Because of the complex nature of cell signaling, the activation of distinct cell signaling mediated through different targets might result in similar overall DMR signal. However, because of the participation of unique sets of cellular targets for a specific signaling event, the modulation profiles mediated by a predetermined set of selective modulators might provide a means to classify the specificity of cell signaling being activated by a particular stimulus. Therefore, the DMR response can be treated as a unique and perfect readout for systems biology studies of living cells. […] The effect of various known inhibitors/drugs on the DMR response of quiescent A431 cells linked the cell response to mainly the Ras/mitogen-activated protein (MAP) kinase pathway, which primarily proceeds through MEK.
Another biosensor output parameter can be the kinetics of any of the aspects of data output. For example, the rate at the completion of the phase transitions. For example, how fast are the phase transitions completed or how long does it take to complete data output. Another example of the kinetics that can be measured would be the length of time for which an overall phase of the data output takes. Another example is the total duration of time of one or both of the P- and N-DMR phases. Another example is the rate or time in which it takes to acquire the total amplitudes of one or both of the P- and N-DMR phases. Another example can be the transition time τ from the P- to N-DMR phase. The kinetics of both P-DMR and N-DMR events or phases can also be measured. For example, stimulation of human quiescent human epidermoid carcinoma A431 with epidermal growth factor (EGF) results in a dynamic response consisting of at least three phases. […]

[3] = tested on: ReN cells; assay: Epic label-free RWG biosensor receptor assay on ReN cells; type: cell-based, human; details: Epic single step assay; for agonist response profile, undifferentiated versus differentiated cells: ReN cells (FIG. 6); for agonist response of differentiated cells: ReN cells differentiated without rapamycin (FIG. 6)
Procedure: The label-free biosensor assays for various receptors was done in the presence of various concentrations of a typical agonist using Corning Epic® system. Assay on undifferentiated cells was carried out simultaneously. […] Undifferentiated receptor profiles were similar to rapamycin treated cells indicating the blockage of differentiation by rapamycin.
ReN Cells were treated with or without rapamycin (5 μM) for 6 days. Cells were washed with HBSS and loaded onto Epic instrument for a single step assay with various receptor agonists. Undifferentiated cells grown for 3-4 days (till confluency) and run of Epic instrument as described above.

Molecule: O=c1[nH]c2ccccc2n1C1CCN(Cc2ccc(-c3[nH]c4cc5ncnc5cc4nc3-c3ccccc3)cc2)CC1 [A6730]
block of neural progenitor differentiation by PI3-K / Akt inhibitors [1]: did not block the neural progenitor differentiation

Molecule: COc1cc2ncnc(Nc3cccc(Cl)c3)c2cc1OC [AG1478]
suppression of EGF-induced DMR response [2]: fully suppressed

Molecule: Nc1ncnc2c1ncn2[C@@H]1O[C@H](CO)[C@@H](O)[C@H]1O [Adenosine]
agonist response profile, undifferentiated versus differentiated cells [3]: different profiles

Molecule: O=C(O)c1ccc2nc(-c3ccccc3)c(-c3ccccc3)nc2c1 [BML-257]
block of neural progenitor differentiation by PI3-K / Akt inhibitors [1]: did not block the neural progenitor differentiation

Molecule: NCCCC(=O)O [GABA]
agonist response of differentiated cells [3]: did not responds to these stimuli

Molecule: C[C@@H](N)[C@H]1CC[C@H](C(=O)Nc2ccncc2)CC1 [Y27632]
block of neural progenitor cell differentiation by ROCK inhibitor ([1]; Y27632 1 μM, 6-7 days (FIG. 5)): had no effect on the differentiation process; also recorded: did not block neural progenitor cell differentiation

Molecule: NCCc1ccc(O)c(O)c1 [dopamine]
agonist response profile, undifferentiated versus differentiated cells [3]: different profiles

Molecule: CNC[C@H](O)c1ccc(O)c(O)c1 [epinephrine]
agonist response profile, undifferentiated versus differentiated cells [3]: different profiles

Molecule: NCCc1c[nH]c2ccc(O)cc12 [serotonin]
agonist response of differentiated cells [3]: did not responds to these stimuli

EC50 ([2]; EGF stimulation, read-out: EC50 from amplitudes of the N-DMR signals): ~1.45 nM
Molecule: EGF: epidermal growth factor
Kd ([2]; EGF stimulation, read-out: Kd from one-phase decay constant κ of the N-DMR signal): 5.76 nM
